Data from ChEMBL document CHEMBL3351854, “A comprehensive review on synthetic approach for antimalarial agents” (Eur J Med Chem, 2014).

Assays:
[1] = test system: Plasmodium yoelii nigeriensis; test: Antimalarial activity against multidrug-resistant Plasmodium yoelii nigeriensis infected mouse assessed as protection at 24 mg/kg for 4 days; type: functional
[2] = test system: Plasmodium yoelii nigeriensis; test: Antimalarial activity against multidrug-resistant Plasmodium yoelii nigeriensis infected mouse assessed as protection at 12 mg/kg for 4 days; type: functional
Plasmodium falciparum [3] = test: Antimalarial activity against Plasmodium falciparum by culture assay; type: functional, organism-based
Plasmodium falciparum [4] = test: Antimalarial activity against Plasmodium falciparum by Heme-HRP assay; type: functional, organism-based
Plasmodium falciparum [5] = test: Antimalarial activity Plasmodium falciparum NF54; type: functional, organism-based

`C[C@@H]1[C@H]2CC[C@@H](C)[C@@H]3CC[C@]4(C)OO[C@@]23[C@H](C[C@H]1OC(=O)C1c2ccccc2-c2ccccc21)O4` was tested, and the Activity [1] was 100% and the Activity [2] was 80%.

In the case of `Fc1ccc(CNCCOCCOCCNc2ccnc3cc(Cl)ccc23)c(F)c1`, the IC50 (Plasmodium falciparum [3]) is reported as 48 nM and the IC50 (Plasmodium falciparum [4]) is reported as 60 µM.

Compound `CCOC(=O)CC1CCC2(OCCCC2CC(=O)OCC)OO1` (stereo not given) has an IC50 (Plasmodium falciparum [5]) of 160 nM.
